Experimental findings from patent publication US4533662A, “2-Acylaminomethyl-1,4-benzodiazepine compounds and analgesic use” (Kali-Chemie Pharma GmbH, priority 1980, dated 1985) are described below.

Counter-ions that a name gives are not always drawn.

One series has as its system rats. Nature of the series: Arthritis pain test with rats. In kind it is in vivo, Male rats of the strain OFA. The note with it: Rattus norvegicus, po, 3 hours after administration; protection (no or one squeak) in 50% of animals; read-out: Suppression of arthritis pain in rats ED50. As to the method:
2. Arthritis pain test with rats.
Male rats of the strain OFA weighing 160 g. to 180 g. are anesthesized by intraperitoneal administration of 20 mg./kg. of pentobarbital sodium. 0.1 ml. of suspension of Mycobacterium Smegmae (S I043) in paraffin oil (0.6 mg. of Mycobacterium in 0.1 ml. of paraffin oil) are injected intracutaneously into the left hind paw. Fourteen days thereafter, when a pronounced secondary arthritis has developed particularly in the right hind paw, the effects of the compound to be tested are investigated. 30 minutes before the administration of the compound to be tested, a control measurement is carried out by bending three times the ankle joint of the right hind paw and the number of squeaks produced by the animal are counted. […] Three hours after oral administration of the compound to be tested, the bending procedure is repeated. Animals which emit only one squeak or none at all, are considered to be protected against pain. Between 9 and 20 rats are tested per dose and the ED50 (95% confidence limit) is determined according to the method of Litchfield and Wilcoxon (1949). The dose which achieves protection in 50% of the treated animals is designated as the ED50.

Series [1] deals with mice. Nature of the series: Tail flick test with mice. The note with it: Mus musculus, sc, 0.5 h; s.c., 30 min after administration; reaction time 75% longer in 50% of animals. In kind it is in vivo, male and female mice. On the procedure: 3. Tail flick test with mice.
The method is based on the procedure described by d'Amour and Smith in 1941. In contrast thereto there are used, in place of rats, fed male and female mice of a body weight of 16 g. to 25 g. 30 minutes before treatment with the compound to be tested each mouse is placed into a separate cylindrical container of such a size that the mouse cannot turn around and cannot move forward. Its tail extends outwardly of the container while resting in a narrow trough. A specific spot of the tail of each animal (at a distance of about 35 mm. from the tail root) is exposed to the heat of radiation of a lamp of known strength and temperature. The lamp is positioned directly underneath the tail. The time in seconds which the mouse needs in order to jerk the tail out of the range of the light ray, is determined twice, once 30 minutes and another time 15 minutes before the subcutaneous administration of the compound (10 mg./kg) to be tested. Mice, the reaction time of which deviates by more than 25%, are eliminated and disregarded. The reaction times are again measured 15 minutes and 30 minutes after administration. An increase in the reaction times by more than 75% of the average reaction time values measured before administration of the test compound to the same mouse is considered an analgesic effect. […] The ED50 is calculated according to the method of Litchfield and Wilcoxon (1949).
A general note: Thermal pain tests record how soon the animal reacts.

Series [2] deals with mice. Nature of the series: Determination of the minimum toxic dose in mice. In kind it is in vivo, male mice. The note with it: p.o., observed 3 hours, deaths and symptoms up to 24 hours; maximum dose 300 mg./kg. As to the method:
1. Determination of the minimum toxic dose.
Maximum doses of 300 mg./kg. of the compound to be tested are administered per os to male mice of a weight of 20 g. to 25 g. The animals are carefully observed for any toxicity symptoms during 3 hours. In addition thereto all symptoms and deaths are registered for a period of time of 24 hours after administration of the drug. Any accompanying symptoms are also observed and registered. When death or toxic symptoms are observed, more and more decreasing doses are administered to other mice, until no more toxic symptoms are encountered. The lowest dose which causes toxic symptoms is given as the minimum toxic dose.

One may read the ED50 as the dose at which the effect has come halfway, by size or by number of responders. `CN1c2ccccc2C(c2ccccc2)=NCC1CNC(=O)c1ccccc1` (centres unmarked) [Example 1, 1-Methyl-2-benzoyl amino methyl-5-phenyl-1H-2,3-dihydro-1,4-benzo diazepine]: the ED50 amounted to 19 mg/kg in the series on rats and 0.52 mg/kg in the series with mice [1]. In addition, the “Minimum toxic dose in mice” value in the series with mice [2] was greater than 300 mg/kg.

As to `COc1ccc2c(c1)N(C)C(CNC(=O)c1ccccc1)CN=C2c1ccc(F)cc1` (centres unmarked) [Example 2, 8-Methoxy-1-methyl-2-benzoyl amino methyl-5-(4'-fluorophenyl)-1H-2,3-dihydro-1,4-benzo diazepine], the median effective dose (ED50) in the series with rats worked out at 2 mg/kg; in the series with mice [1], 0.64 mg/kg. Also, the “Minimum toxic dose in mice” value with mice [2] is 50 mg/kg.

Regarding `COc1ccc2c(c1)N(C)C(CNC(=O)c1ccccc1)CN=C2c1ccc(Cl)cc1Cl` (centres unmarked) [Example 4, 8-Methoxy-1-methyl-2-benzoyl amino methyl-5-(2',4'-dichlorophenyl)-1H-2,3-dihydro-1,4-benzo diazepine], the ED50 in the series on rats was determined as 0.5 mg/kg; in the series on mice [1], 0.07 mg/kg. The “Minimum toxic dose in mice” value with mice [2] worked out at 10 mg/kg.

As to `CN1c2ccccc2C(c2ccccc2)=NCC1CNC(=O)c1ccc(Cl)cc1Cl` (centres unmarked) [Example 18], in the series with rats, the ED50 came out at 7.5 mg/kg. In the series on mice [2], the “Minimum toxic dose in mice” value was greater than 300 mg/kg.

In the case of `CN1c2ccccc2C(c2ccccc2)=NCC1CNC(=O)c1ccc(Cl)c(Cl)c1` (centres unmarked) [Example 19, 1-Methyl-2-(3,4-dichlorobenzoylaminomethyl)-5-phenyl-1H--2,3-dihydro-1,4-benzo diazepine hydrochloride], the ED50 with rats is roughly 2.3 mg/kg; with mice [1], 1 mg/kg. Also, the “Minimum toxic dose in mice” value in the series with mice [2] is greater than 300 mg/kg.

For `COc1ccc(C(=O)NCC2CN=C(c3ccccc3)c3ccccc3N2C)cc1` (centres unmarked) [Example 20], the ED50 is roughly 4 mg/kg in the series with rats and 4.6 mg/kg in the series on mice [1]. Further, the “Minimum toxic dose in mice” value in the series with mice [2] was found to be 300 mg/kg.

As for `Cc1ccc(C(=O)NCC2CN=C(c3ccccc3)c3ccccc3N2C)cc1` (centres unmarked) [Example 25], the ED50 came to 3.2 mg/kg with rats and 2.5 mg/kg with mice [1].

For the compound `CN1c2ccccc2C(c2ccccc2)=NCC1CNC(=O)c1ccc([N+](=O)[O-])cc1` (centres unmarked) [Example 28], the ED50 with rats stood at 0.6 mg/kg. Moreover, the “Minimum toxic dose in mice” value in the series on mice [2] was greater than 300 mg/kg.

Regarding `CN1c2ccccc2C(c2ccccc2F)=NCC1CNC(=O)c1ccc(C#N)cc1` (centres unmarked) [Example 29], the ED50 in the series on rats worked out at 1.7 mg/kg; in the series with mice [1], 21 mg/kg. The “Minimum toxic dose in mice” value with mice [2] amounted to 300 mg/kg.

`COc1cccc(C(=O)NCC2CN=C(c3ccccc3F)c3ccccc3N2C)c1` (centres unmarked) [Example 31]: the results for the ED50 in the series with rats and with mice [1] were 10 to 18 mg/kg and 1.8 mg/kg, respectively. Besides, in the series with mice [2], the “Minimum toxic dose in mice” value is greater than 300 mg/kg.

As to `COc1ccc(C(=O)NCC2CN=C(c3ccccc3F)c3ccccc3N2C)cc1` (centres unmarked) [Example 32], the ED50 was found to be 1.7 mg/kg with rats and 4.2 mg/kg with mice [1]. The “Minimum toxic dose in mice” value in the series on mice [2] is 300 mg/kg.

For `CN1c2ccccc2C(c2ccccc2F)=NCC1CNC(=O)c1ccc(C(F)(F)F)cc1` (centres unmarked) [Example 33], the ED50 is 5.6 to 10 mg/kg with rats and 1.4 mg/kg in the series with mice [1]. Further, the “Minimum toxic dose in mice” value in the series with mice [2] was greater than 300 mg/kg.

As to `CN1c2ccccc2C(c2ccccc2F)=NCC1CNC(=O)c1cccc(C#N)c1` (centres unmarked) [Example 35], the ED50 in the series with rats was found to be 9 mg/kg; in the series on mice [1] it was 13 mg/kg.

As to `COc1ccc(C(=O)NCC2CN=C(c3ccc(F)cc3)c3ccccc3N2C)cc1` (centres unmarked) [Example 40], in the series with rats, the median effective dose (ED50) was found to be 11 mg/kg. In addition, the “Minimum toxic dose in mice” value with mice [2] was greater than 300 mg/kg.

For the compound `Cc1ccc2c(c1)C(c1ccccc1F)=NCC(CNC(=O)c1ccccc1)N2C` (centres unmarked) [Example 47], the figures for the ED50 in the series with rats and in the series on mice [1] were roughly 13 mg/kg and 5.6 mg/kg, respectively. In addition, the “Minimum toxic dose in mice” value in the series with mice [2] is greater than 300 mg/kg.

On to `CN1c2cc3c(cc2C(c2ccccc2)=NCC1CNC(=O)c1ccccc1)OCO3` (centres unmarked) [Example 49], for which the ED50 turned out to be 2.5 mg/kg in the series on rats and 0.56 mg/kg in the series with mice [1]. Further, in the series with mice [2], the “Minimum toxic dose in mice” value was 100 mg/kg.

Turning to `COc1ccc2c(c1)N(C)C(CNC(=O)c1ccccc1)CN=C2c1cccc(C(F)(F)F)c1` (centres unmarked) [Example 55], the ED50 was 10 to 18 mg/kg with rats and 5.6 to 10 mg/kg with mice [1].

Take `COc1ccc2c(c1)N(C)C(CNC(=O)c1ccccc1)CN=C2c1cccc(F)c1` (centres unmarked) [Example 58]: the ED50 with rats was roughly 18 mg/kg; in the series with mice [1], 1.6 mg/kg. In addition, the “Minimum toxic dose in mice” value with mice [2] is 300 mg/kg.

As to `CN1c2cc(F)ccc2C(c2ccccc2)=NCC1CNC(=O)c1ccccc1` (centres unmarked) [Example 59], the figures for the ED50 in the series on rats and with mice [1] were 9.7 mg/kg and 1 mg/kg, respectively. For the same compound, the “Minimum toxic dose in mice” value with mice [2] stood at 300 mg/kg.

As to `COc1ccc2c(c1)N(C)C(CNC(=O)c1ccccc1)CN=C2c1ccccc1F` (centres unmarked) [Example 60], the ED50 amounted to 3.5 mg/kg with rats and 0.32 mg/kg in the series on mice [1]. The “Minimum toxic dose in mice” value in the series on mice [2] was 300 mg/kg.

Consider `COc1ccc(CC(=O)NCC2CN=C(c3ccccc3)c3cc(Cl)ccc3N2C)cc1OC` (centres unmarked) [Example 112], for which the ED50 in the series on rats came out at 10 mg/kg; in the series with mice [1] it was 20 mg/kg. In addition, the “Minimum toxic dose in mice” value in the series on mice [2] is 50 mg/kg.

Regarding `COc1ccc(CC(=O)NCC2CN=C(c3ccccc3)c3cc4c(cc3N2C)OCO4)cc1OC` (centres unmarked) [Example 113], the ED50 in the series on rats is 18 to 32 mg/kg; with mice [1] it was less than 5.6 mg/kg. For the same compound, the “Minimum toxic dose in mice” value in the series with mice [2] was found to be 100 mg/kg.

As to `CN1c2ccccc2C(c2ccccc2F)=NCC1CNC(=O)Cc1ccccc1Cl` (centres unmarked) [Example 117], the ED50 was 6 mg/kg in the series with rats and 13 mg/kg in the series with mice [1]. The “Minimum toxic dose in mice” value with mice [2] was greater than 300 mg/kg.

Turning to `CCN1c2ccccc2C(c2ccccc2F)=NCC1CNC(=O)c1ccc(C(F)(F)F)cc1` (centres unmarked) [Example 154], the ED50 in the series on rats came to 2 mg/kg.

As to `CCN1c2ccccc2C(c2ccccc2)=NCC1CNC(=O)c1ccc(C(F)(F)F)cc1` (centres unmarked) [Example 155], the ED50 in the series on rats is roughly 2 mg/kg.
